{"source": "paper PMC10037499", "about": "“High-Throughput Screen Reveals the Structure–Activity Relationship of the Antimicrobial Lasso Peptide Ubonodin” (ACS Central Science, 2023)", "key": {"[1]": {"system": "B. cenocepacia AU0756", "set-up": "method as in PMID 35802499", "conditions": "spot-on-lawn assay; cited from earlier work", "description": "(§1) We proceeded to test the antimicrobial activity of the selected variants against two clinical isolates of the Bcc, B. cenocepacia AU0756 and B. cenocepacia AU24362, in broth microdilution assays. […] We revisited these measurements using broth microdilution assays following the Clinical & Laboratory Standards Institute (CLSI) standard."}, "[2]": {"system": "RNA polymerase (RNAP) in E. coli MC1061", "assay": "High-throughput growth-based screen with NGS (enrichment value) for RNA polymerase inhibition", "type": "cell-based", "conditions": "log2 of frequency post-IPTG / frequency in cloning transformation library, single mutant library", "summary_of_the_method": "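E. coli MC1061 carrying ubonodin single/double variant plasmid libraries was grown and induced with 10 µM or 100 µM IPTG; surviving colonies were sequenced by NGS. Enrichment value = log2 of variant frequency post-IPTG over frequency in the cloning transformation library; depletion indicates RNAP inhibition.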"}, "[3]": {"system": "E. coli RNAP", "conditions": "cited from earlier work"}, "[4]": {"system": "B. cenocepacia AU0756", "summary_of_the_method": "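Ubonodin variants were tested by broth microdilution following CLSI guidelines against clinical Burkholderia cenocepacia isolates AU0756 and AU24362.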"}, "[5]": {"system": "B. cenocepacia AU24362", "set-up": "method as in PMID 35802499", "conditions": "spot-on-lawn assay; cited from earlier work", "description": "as §1"}}, "note": "Where a SMILES comes first, the peptide text is derived from it.", "data": [{"molecule": "CC[C@H](C)[C@@H]1NC(=O)[C@H](CO)NC(=O)CNC(=O)[C@H](CC(=O)O)NC(=O)CNC(=O)CNC(=O)CC[C@@H](C(=O)N[C@@H](Cc2ccc(O)cc2)C(=O)N[C@@H](Cc2ccccc2)C(=O)N[C@@H](CC(N)=O)C(=O)N[C@@H](CCCNC(=N)N)C(=O)N2CCC[C@H]2C(=O)N[C@@H](CCSC)C(=O)N[C@@H](Cc2c[nH]cn2)C(=O)N[C@H](C(=O)N[C@@H](Cc2c[nH]cn2)C(=O)N[C@@H](CC(=O)O)C(=O)N[C@@H](Cc2c[nH]c3ccccc23)C(=O)N[C@@H](CCC(N)=O)C(=O)N[C@H](C(=O)N[C@@H](CCSC)C(=O)N[C@@H](CC(=O)O)C(=O)N[C@@H](CO)C(=O)NCC(=O)N[C@@H](Cc2ccc(O)cc2)C(=O)N[C@@H](Cc2ccc(O)cc2)C(=O)NCC(=O)O)[C@@H](C)CC)[C@@H](C)CC)NC(=O)[C@H](C)NC1=O", "note": "[WT, ubonodin] (HELM PEPTIDE1{G.G.D.G.S.I.A.E.Y.F.N.R.P.M.H.I.H.D.W.Q.I.M.D.S.G.Y.Y.G}$PEPTIDE1,PEPTIDE1,1:R1-8:R3$$$V2.0; C-terminus assumed)", "values": [{"measurement": "MIC against strain AU0756", "setting": "[1]", "value": 10, "unit": "µM"}, {"measurement": "Enrichment value", "setting": "[2]; induction with 10 μM IPTG", "value": "−4.2"}, {"measurement": "Enrichment value", "setting": "[2]; induction with 100 μM IPTG", "value": "−4.3"}, {"measurement": "Inhibition of E. coli RNAP in vitro", "setting": "[3]", "value": "inhibits E. coli RNAP in vitro"}, {"measurement": "B. cenocepacia AU0756 MIC", "setting": "[4]", "value": "0.25 to 0.5", "unit": "µM"}, {"measurement": "MIC against strain AU24362", "setting": "[5]", "value": 20, "unit": "µM"}]}]}
